The source of these data is patent US10815275B2, “Antimicrobial peptoids with improved selectivity and use thereof” (priority 2018, dated 2020).

≈ marks a conversion by molar mass, not a printed value. Non-standard residues stand in square brackets, D forms with d. Residues, ends and D or L forms follow the SMILES beside them. Nspe = C[C@H](NCC(=O)O)c1ccccc1; Nphe = O=C(O)CNCc1ccccc1; Nlys = NCCCCNCC(=O)O Where only a bound is given, the exact number is not on record here.

Data set [1] has as its system E. coli strain ATCC25922. The data set is classed as cell-based. The following applies: for MBC E. coli: ATCC25922; for MIC E. coli: ATCC25922, 18 h. As to the method: (§1) In order to measure antimicrobial activity of the peptoids, Gram-positive S. aureus strain KCTC1621, or Gram-negative E. coli strain ATCC25922 was treated with the peptoids prepared in Preparation Example 1, and minimum inhibitory concentrations were measured. Peptoid NOS. 1 and 2 are already known peptoids and were used for the purpose of making a comparison with novel peptoids in terms of antimicrobial activity.
(§2) Specifically, S. aureus strain KCTC1621 or E. coli strain ATCC25922 was inoculated into Mueller Hinton Broth (MHB2) liquid medium on which cations were adjusted, cultured at a temperature of 37° C. for 18 hours, and then subcultured for 4 hours. Thereafter, the strains were diluted with MHB2 liquid medium containing 0.2% bovine serum albumin and 0.01% acetic acid so that each bacterial number was 2×10^5 colony-forming units (CFU) per 1 mL, and dispensed into 96-well microtiter plates at 100 μL each. A peptoid stock which is 40-fold more concentrated than a concentration to be tested was added to each well at 2.5 μL or lower so that the peptoid stock was 2-fold serially diluted using sterile water. Thereafter, the plates were incubated at a temperature of 37° C. for 18 hours.
(§3) Thereafter, absorbance was measured at a wavelength of 600 nm using a microplate reader (Bio-Rad). The lowest peptoid concentration that completely suppresses growth of microorganisms was measured by a minimum inhibitory concentration (MIC) and a minimum bactericidal concentration (MBC), and the measurement results are shown in Table 5 below. Each of the MIC values was calculated as an average value of numerical values obtained through three independent experiments.

The test system of data set [2] is S. aureus strain KCTC1621. The data set is classed as cell-based. The following applies: for MBC S. aureus: KCTC1621; for MIC S. aureus: KCTC1621, 18 h. The method, then: as §1, §2, §3
The test system of data set [3] is red blood cells. Description: Hemolytic activity on red blood cells. The data set is classed as cell-based, mouse. The method, then:
In order to identify, through red blood cell hemolytic activity in mice, whether the peptoids synthesized in Preparation Example 1 are cytotoxic, red blood cells isolated from 10 mL of mouse blood were washed three times with phosphate-buffered saline (PBS, mixed solution of 35 mM phosphate buffer/150 mM NaCl, pH 7.4), and then centrifuged at a centrifugal force of 1,000 ×g for 10 minutes. A 10% (v/v) red blood cell solution diluted with PBS was dispensed into a 96-well microtiter plate at 150 μL each, and then a peptide solution was added at 50 μL each. Thereafter, the 96-well microtiter plate was incubated at a temperature of 37° C. for 1 hour.
The incubated 96-well microtiter plate was centrifuged at a centrifugal force of 1,000×g for 5 minutes. Thereafter, supernatant was taken at 100 μL each and transferred to a new 96-well microtiter plate. Then, absorbance at a wavelength of 540 nm was measured (Table 6).
In this case, a value obtained in a case of being treated with 0.1% (v/v) Triton X-100 was set as 100% hemolysis, and hemolytic activity (degree of cell destruction) of the peptoids was calculated using the following Equation 1. In the Equation 1, A is absorbance of the peptoid solution at a wavelength of 540 nm, B is absorbance of 0.1% Triton X-100 at a wavelength of 540 nm, and C is absorbance of the PBS solution at a wavelength of 540 nm. In this case, Peptoid NO. […] Degree of cell destruction (% hemolysis)=(A−C)/(B−C)[…] [Equation 1]
In Table 6, HD10 means a peptoid concentration which causes 10% hemolysis of red blood cells, and HD50 means a peptoid concentration which causes 50% hemolysis of red blood cells. In addition, Hmax is a hemolysis rate (%) at 200 μM which is the highest peptoid concentration used in the experiment.
Hemolytic activity of Peptoid NOS. 1, 18 to 23, and the peptide Pexiganan was measured in the same manner as in Experimental Example 2.

The test system of data set [4] is E. coli. Description: Selectivity analysis, HD10 divided by MIC for E. coli. The following applies: HD10 of Table 6 divided by MIC for E. coli ATCC25922. As to the method: In order to identify changes in selectivity depending on alteration of degree of folding in helical structure of peptoids, selectivity of each peptoid was calculated using the resultant values measured in the Experimental Examples 1 and 2. The selectivity was obtained by dividing the HD10 value by the minimum inhibitory concentration for E. coli (Table 8).

Consider `C[C@@H](c1ccccc1)N(CC(=O)N(CC(=O)N(CCCCN)CC(=O)N(CC(=O)N(CC(=O)N(CCCCN)CC(=O)N(CC(=O)N(CC(=O)N(CCCCN)CC(=O)N(CC(=O)N(CC(N)=O)Cc1ccccc1)Cc1ccccc1)Cc1ccccc1)Cc1ccccc1)Cc1ccccc1)Cc1ccccc1)Cc1ccccc1)C(=O)CNCCCCN` [compound 3] (H-[Nlys][Nspe][Nphe][Nlys][Nphe][Nphe][Nlys][Nphe][Nphe][Nlys][Nphe][Nphe]-NH2), for which, in data set [1], the “MBC E. coli” value is 25 µM (≈ 43 µg/mL) and the “MIC E. coli” value was determined as 25 µM (≈ 43 µg/mL). Also, in data set [2], the “MBC S. aureus” value was 3.1 µM (≈ 5.34 µg/mL) and the “MIC S. aureus” value worked out at 3.1 µM (≈ 5.34 µg/mL). In addition, in data set [3], the HD10 is recorded as 112.7 and the HD50 is given as above 200. The “Selectivity [HD10/MIC (E. coli)]” value in data set [4] is recorded as 4.5.

Take `C[C@@H](c1ccccc1)N(CC(=O)N(CC(=O)N(CCCCN)CC(=O)N(CC(=O)N(CC(=O)N(CCCCN)CC(=O)N(CC(=O)N(CC(N)=O)Cc1ccccc1)Cc1ccccc1)Cc1ccccc1)Cc1ccccc1)Cc1ccccc1)C(=O)CN(CCCCN)C(=O)CN(Cc1ccccc1)C(=O)CN(Cc1ccccc1)C(=O)CNCCCCN` [compound 5] (H-[Nlys][Nphe][Nphe][Nlys][Nspe][Nphe][Nlys][Nphe][Nphe][Nlys][Nphe][Nphe]-NH2): in data set [1], the “MBC E. coli” value stood at 12.5 µM (≈ 21.5 µg/mL) and the “MIC E. coli” value stood at 12.5 µM (≈ 21.5 µg/mL). In data set [2], the “MBC S. aureus” value amounted to 3.1 µM (≈ 5.34 µg/mL) and the “MIC S. aureus” value came out at 3.1 µM (≈ 5.34 µg/mL). In data set [3], this compound returned an HD50 of 195.0.

Regarding `C[C@@H](c1ccccc1)N(CC(=O)N(CCCCN)CC(=O)N(CC(=O)N(CC(=O)N(CCCCN)CC(=O)N(CC(=O)N(CC(N)=O)Cc1ccccc1)Cc1ccccc1)Cc1ccccc1)Cc1ccccc1)C(=O)CN(Cc1ccccc1)C(=O)CN(CCCCN)C(=O)CN(Cc1ccccc1)C(=O)CN(Cc1ccccc1)C(=O)CNCCCCN` [compound 6] (H-[Nlys][Nphe][Nphe][Nlys][Nphe][Nspe][Nlys][Nphe][Nphe][Nlys][Nphe][Nphe]-NH2), in data set [1], the “MBC E. coli” value turned out to be 25 µM (≈ 43 µg/mL) and the “MIC E. coli” value was found to be 12.5 µM (≈ 21.5 µg/mL). For the same compound, in data set [2], the “MBC S. aureus” value was 3.1 µM (≈ 5.34 µg/mL) and the “MIC S. aureus” value stood at 3.1 µM (≈ 5.34 µg/mL). In data set [3], the HD10 was determined as 101.4 and the HD50 was determined as 185.4.

`C[C@@H](c1ccccc1)N(CC(=O)N(CC(=O)N(CCCCN)CC(=O)N(CC(=O)N(CC(N)=O)Cc1ccccc1)Cc1ccccc1)Cc1ccccc1)C(=O)CN(CCCCN)C(=O)CN(Cc1ccccc1)C(=O)CN(Cc1ccccc1)C(=O)CN(CCCCN)C(=O)CN(Cc1ccccc1)C(=O)CN(Cc1ccccc1)C(=O)CNCCCCN` [compound 7] (H-[Nlys][Nphe][Nphe][Nlys][Nphe][Nphe][Nlys][Nspe][Nphe][Nlys][Nphe][Nphe]-NH2): in data set [1], the “MBC E. coli” value worked out at 25 µM (≈ 43 µg/mL) and the “MIC E. coli” value was determined as 12.5 µM (≈ 21.5 µg/mL). In data set [2], the “MBC S. aureus” value came out at 3.1 µM (≈ 5.34 µg/mL) and the “MIC S. aureus” value came out at 3.1 µM (≈ 5.34 µg/mL). Further, the HD50 in data set [3] is above 200.

In the case of `C[C@@H](c1ccccc1)N(CC(=O)N(CCCCN)CC(=O)N(CC(=O)N(CC(N)=O)Cc1ccccc1)Cc1ccccc1)C(=O)CN(Cc1ccccc1)C(=O)CN(CCCCN)C(=O)CN(Cc1ccccc1)C(=O)CN(Cc1ccccc1)C(=O)CN(CCCCN)C(=O)CN(Cc1ccccc1)C(=O)CN(Cc1ccccc1)C(=O)CNCCCCN` [compound 8] (H-[Nlys][Nphe][Nphe][Nlys][Nphe][Nphe][Nlys][Nphe][Nspe][Nlys][Nphe][Nphe]-NH2), in data set [1], the “MBC E. coli” value was 25 µM (≈ 43 µg/mL) and the “MIC E. coli” value is 12.5 µM (≈ 21.5 µg/mL). In data set [2], the “MBC S. aureus” value turned out to be 3.1 µM (≈ 5.34 µg/mL) and the “MIC S. aureus” value is 3.1 µM (≈ 5.34 µg/mL). Further, in data set [3], the HD10 is 88.5 and the HD50 was above 200. In data set [4], the “Selectivity [HD10/MIC (E. coli)]” value amounted to 7.1.

`C[C@@H](c1ccccc1)N(CC(=O)N(CC(N)=O)Cc1ccccc1)C(=O)CN(CCCCN)C(=O)CN(Cc1ccccc1)C(=O)CN(Cc1ccccc1)C(=O)CN(CCCCN)C(=O)CN(Cc1ccccc1)C(=O)CN(Cc1ccccc1)C(=O)CN(CCCCN)C(=O)CN(Cc1ccccc1)C(=O)CN(Cc1ccccc1)C(=O)CNCCCCN` [compound 9] (H-[Nlys][Nphe][Nphe][Nlys][Nphe][Nphe][Nlys][Nphe][Nphe][Nlys][Nspe][Nphe]-NH2): in data set [1], the “MBC E. coli” value was 25 µM (≈ 43 µg/mL) and the “MIC E. coli” value was 12.5 µM (≈ 21.5 µg/mL). Further, in data set [2], the “MBC S. aureus” value is 3.1 µM (≈ 5.34 µg/mL) and the “MIC S. aureus” value was determined as 3.1 µM (≈ 5.34 µg/mL). In data set [3], this compound returned an HD10 of 54.4 and an HD50 above 200. Besides, the “Selectivity [HD10/MIC (E. coli)]” value in data set [4] was 4.3.

Regarding `C[C@@H](c1ccccc1)N(CC(N)=O)C(=O)CN(Cc1ccccc1)C(=O)CN(CCCCN)C(=O)CN(Cc1ccccc1)C(=O)CN(Cc1ccccc1)C(=O)CN(CCCCN)C(=O)CN(Cc1ccccc1)C(=O)CN(Cc1ccccc1)C(=O)CN(CCCCN)C(=O)CN(Cc1ccccc1)C(=O)CN(Cc1ccccc1)C(=O)CNCCCCN` [compound 10], in data set [1], the “MBC E. coli” value came to 25 µM (≈ 43 µg/mL) and the “MIC E. coli” value amounted to 12.5 µM (≈ 21.5 µg/mL). Also, in data set [2], the “MBC S. aureus” value worked out at 3.1 µM (≈ 5.34 µg/mL) and the “MIC S. aureus” value was 3.1 µM (≈ 5.34 µg/mL). In addition, in data set [3], the HD10 amounted to 103.3 and the HD50 is above 200.

As to `C[C@@H](c1ccccc1)N(CC(N)=O)C(=O)CN(Cc1ccccc1)C(=O)CN(CCCCN)C(=O)CN(Cc1ccccc1)C(=O)CN(Cc1ccccc1)C(=O)CN(CCCCN)C(=O)CN(Cc1ccccc1)C(=O)CN(Cc1ccccc1)C(=O)CN(CCCCN)C(=O)CN(Cc1ccccc1)C(=O)CN(C(=O)CNCCCCN)[C@@H](C)c1ccccc1` [compound 12], in data set [1], the “MBC E. coli” value is 25 µM (≈ 43.4 µg/mL) and the “MIC E. coli” value was found to be 12.5 µM (≈ 21.7 µg/mL). In data set [2], the “MBC S. aureus” value was 3.1 µM (≈ 5.38 µg/mL) and the “MIC S. aureus” value is 3.1 µM (≈ 5.38 µg/mL). In data set [3], this compound gave an HD10 of 79.7 and an HD50 above 200. In addition, in data set [4], the “Selectivity [HD10/MIC (E. coli)]” value is reported as 6.4.

Turning to `C[C@@H](c1ccccc1)N(CC(N)=O)C(=O)CN(C(=O)CN(CCCCN)C(=O)CN(Cc1ccccc1)C(=O)CN(Cc1ccccc1)C(=O)CN(CCCCN)C(=O)CN(Cc1ccccc1)C(=O)CN(Cc1ccccc1)C(=O)CN(CCCCN)C(=O)CN(Cc1ccccc1)C(=O)CN(C(=O)CNCCCCN)[C@@H](C)c1ccccc1)[C@@H](C)c1ccccc1` [compound 14], in data set [1], the “MBC E. coli” value stood at 12.5 µM (≈ 21.9 µg/mL) and the “MIC E. coli” value worked out at 12.5 µM (≈ 21.9 µg/mL). Moreover, in data set [2], the “MBC S. aureus” value was 1.6 µM (≈ 2.8 µg/mL) and the “MIC S. aureus” value is 1.6 µM (≈ 2.8 µg/mL). Besides, in data set [3], the HD10 was determined as 53.9 and the HD50 is listed as 199.6. In addition, in data set [4], the “Selectivity [HD10/MIC (E. coli)]” value came out at 4.3.

Regarding `C[C@@H](c1ccccc1)N(CC(=O)N(CCCCN)CC(=O)N(CC(=O)N(CC(=O)N(CCCCN)CC(=O)N(CC(=O)N(CC(N)=O)Cc1ccccc1)Cc1ccccc1)[C@@H](C)c1ccccc1)[C@@H](C)c1ccccc1)C(=O)CN(C(=O)CN(CCCCN)C(=O)CN(Cc1ccccc1)C(=O)CN(Cc1ccccc1)C(=O)CNCCCCN)[C@@H](C)c1ccccc1` [compound 16] (H-[Nlys][Nphe][Nphe][Nlys][Nspe][Nspe][Nlys][Nspe][Nspe][Nlys][Nphe][Nphe]-NH2), in data set [1], the “MBC E. coli” value was found to be 6.3 µM (≈ 11.1 µg/mL). Moreover, in data set [2], the “MBC S. aureus” value is 3.1 µM (≈ 5.47 µg/mL) and the “MIC S. aureus” value turned out to be 1.6 µM (≈ 2.82 µg/mL). In data set [3], this compound yielded an HD10 of 53.0 and an HD50 above 200.
